In US20210346359A1, “Use of CFTR Modulators For Treating Cerebrovascular Conditions” (Qanatpharma AG, priority 2018, published 2021):
“Also recorded” adds a separate entry of the source. Where two headings read alike, the source gives them in different places. Blank lines part the entries; values can stand above or below the compound they belong to.

How the values were obtained:
[1] = system: cremaster skeletal muscle resistance arteries; assay: Cremaster skeletal muscle resistance artery myogenic tone and phenylephrine response with CFTR inhibition in vitro; settings: wild-type mouse arteries; in vitro 100 nmol/L for 30 minutes
Experimental: Isolation and functional assessment of resistance arteries: Mouse olfactory (a first branch of the anterior cerebral artery) and PCAs were carefully dissected, cannulated onto micropipettes, stretched to their in vivo lengths and pressurized to 45 mmHg, as previously described (3,6); mouse skeletal muscle resistance arteries were dissected from the cremaster muscle, cannulated and pressurized to 60 mmHg. All functional experiments were conducted in 3-morpholinopropanesulfonic acid (MOPS) buffered saline at 37° C. with no perfusion. […]
Myogenic responses were elicited by step-wise 20 mmHg increases in transmural pressure from 20 mmHg to 80 mmHg (olfactory arteries) or 100 mmHg (posterior cerebral arteries and cremaster skeletal muscle resistance arteries). At each pressure step, vessel diameter (diaactive) was measured once a steady state was reached (5 min). Vessels requiring treatment (e.g., CFTR(inh)-172) were incubated with the reagent in MOPS for 30 min and myogenic responses were then assessed in the presence of that reagent. Following completion of all diaactive measurements, MOPS buffer was replaced with a Ca^2+-free version and maximal passive diameter (diamax) was recorded at each pressure step. […]

[2] = system: olfactory cerebral artery; settings: recent observations (6); cited from earlier work
[3] = system: posterior cerebral arteries; assay: Phenylephrine responses of isolated posterior cerebral arteries; format: in vivo, mouse; settings: Mus musculus, posterior cerebral arteries, log scale, read-out: log EC50 of phenylephrine response (converted)
Experimental: (§1) Isolation and functional assessment of resistance arteries: Mouse olfactory (a first branch of the anterior cerebral artery) and PCAs were carefully dissected, cannulated onto micropipettes, stretched to their in vivo lengths and pressurized to 45 mmHg, as previously described (3,6); mouse skeletal muscle resistance arteries were dissected from the cremaster muscle, cannulated and pressurized to 60 mmHg. All functional experiments were conducted in 3-morpholinopropanesulfonic acid (MOPS) buffered saline at 37° C. with no perfusion. Vasomotor responses to phenylephrine (5 μmol/L for posterior cerebral arteries, 10 μmol/L for cremaster skeletal muscle arteries) provided an assessment of vessel viability at the beginning and end of each experiment. Arteries failing to show ≥25% constriction to phenylephrine were excluded.
(§2) Myogenic tone was calculated as the percent constriction in relation to the maximal diameter at each respective transmural pressure: tone (% of diamax)=[(diamax−diaactive)/diamax]×100, where diaactive is the vessel diameter in MOPS containing Ca^2+ and diamax is the diameter in Ca^2+-free MOPS. Analyses of vasomotor responses to phenylephrine used the same calculation, only in this case, diaactive represents the vessel diameter at steady state following application of the given agent and diamax represents the maximal diameter measured under Ca^2+-free conditions.

[4] = system: olfactory cerebral arteries; assay: Phenylephrine responses of isolated olfactory cerebral arteries; format: in vivo, mouse; settings: Mus musculus, olfactory cerebral arteries, log scale, read-out: log EC50 of phenylephrine response (converted)
Experimental: as §1, §2

[5] = target: T1, TNF (Mus musculus, UniProt P06804); settings: HF and SAH models, cited from earlier work
T1 sequence (P06804 1-235): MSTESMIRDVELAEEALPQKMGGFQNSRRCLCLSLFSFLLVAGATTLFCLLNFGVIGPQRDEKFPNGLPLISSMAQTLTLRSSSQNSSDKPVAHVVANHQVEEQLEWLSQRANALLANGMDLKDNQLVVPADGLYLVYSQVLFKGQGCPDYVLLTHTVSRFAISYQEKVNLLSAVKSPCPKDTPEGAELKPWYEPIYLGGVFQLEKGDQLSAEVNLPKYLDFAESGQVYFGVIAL

Compound: O=C(O)c1ccc(/C=C2\SC(=S)N(c3cccc(C(F)(F)F)c3)C2=O)cc1 [CFTR(inh)-172]
cremaster skeletal muscle resistance artery myogenic tone [1]: does not affect; also recorded: not altered
phenylephrine dose-response relationship in cremaster arteries [1]: not altered
olfactory cerebral artery myogenic tone [2]: augments

EC50 ([3]; CFTRΔF508 mice): 1000 nM
EC50 ([3]; HF mice untreated): 562 nM
EC50 ([3]; Sham (HF study)): 501 nM
EC50 ([3]; WT littermates): 1480 nM
EC50 ([4]; SAH untreated (C18 study)): 977 nM
EC50 ([4]; SAH untreated (lumacaftor study)): 1170 nM
EC50 ([4]; Sham (C18 SAH study)): 3020 nM
EC50 ([4]; Sham (lumacaftor SAH study)): 1620 nM
Compound: CNC[C@H](O)c1cccc(O)c1 [phenylephrine]

Compound: etanercept
HF- and SAH-mediated enhancement of cerebrovascular vasoconstriction (augmented myogenic tone) ([5]; earlier work (3,4,6)): eliminates
cerebral perfusion ([5]; earlier work (3,4,6)): normalizes
neuronal injury ([5]; earlier work (5,6)): reduces
